According to US20120121708A1 (National Taiwan University, priority 2010, published 2012):

Tests used:
[1] = background statement; cited from earlier work
[2] = dissolution rate analysis by dissolution tester (Weibull model); assay type: physicochemical
Description: The microparticle morphology and size are detected by the scanning electron microscopy (SEM). The particle size distribution (PSD) is analyzed by the image analysis software “Image J”. The crystal properties are analyzed by the X-Ray diffractometer. The changes in the crystal form are detected by the differential scanning calorimetry (DSC). […] The analyses of the dissolution rate are performed by the dissolution tester.

dissolution rate coefficient [2]: 0.0626 min⁻¹
Structure (SMILES): CC(=O)Nc1nnc(S(N)(=O)=O)s1 [acetazolamide bulk drug, acetazolamide]
particle size of commercial acetazolamide drug [1]: about 20 μm
